Experimental data: US10479807B2, “Silylated pyrimidine prodrugs and methods of their use” (priority 2014, dated 2019)
Where two headings read alike, the source gives them in different places.

How the values were obtained:
L1210 = assay: In vitro cytotoxicity, leukemia; format: cell-based; settings: Mus musculus
mice = assay: Toxicity of formulated Compound XI in mice; format: in vivo; settings: nanoemulsion, intravenously on three consecutive days, doses up to 60 mg/kg, observed at the end of one week
Procedure: Compound XI was successfully formulated in a nanoemulsion at a concentration of 3 mg/ml. The nanoemulsion has an oil phase consisting of an injectable oil and lecithin and an aqueous phase comprising a tonicity adjuster, a stabilizer and water. The emulsions are of oil-in-water type with the mean oil droplets less than 100 nm. Each vehicle is at neutral pH (5-7) and about isotonic. The toxicity of formulated Compound XI was tested in mice. Mice were injected intravenously on three consecutive days with Compound XI at doses of up to 60 mg/kg and observed at the end of one week.

[1] = Release of 5-azacytidine from prodrug by hydrolysis in PBS; format: physicochemical; settings: PBS at room temperature (20° C.)
HCT-116 = assay: In vitro cytotoxicity, colon; format: cell-based; settings: Homo sapiens, HCT-116, read-out: In vitro cytotoxicity IC50, Colon HCT-116
MDA-MB-231 = assay: In vitro cytotoxicity, breast; format: cell-based; settings: Homo sapiens, MDA-MB-231, read-out: In vitro cytotoxicity IC50, Breast MDA-MB-231
[2] = trifluridine alone; cited from earlier work

Nc1ncn([C@@H]2O[C@H](CO)[C@@H](O)[C@H]2O)c(=O)n1 [5-azacyctidine, 5-azacytidine, reference compound]
IC50 (L1210; L1210 leukemia, read-out: In vitro cytotoxicity IC50, Leukemia L1210): 1700 to 2400 nM

C[Si](C)(C)OC[C@H]1O[C@@H](n2cnc(N)nc2=O)C(F)(F)C1O[Si](C)(C)C (stereo partly shown) [Compound XI, 2′,2′-Difluoro-5-azadeoxycytidine-trimethylsilyl]
Toxicity as measured by weight loss (mice): No evidence of toxicity

C[Si](C)(C)OC[C@H]1O[C@@H](n2cnc(N)nc2=O)[C@@H](O[Si](C)(C)C)C1O[Si](C)(C)C (stereo partly shown) [NUC025, 2′,3′,5′-Tri(trimethylsilyl)-5-azacytidine]
Active drug (5-azacytidine) recovered by hydrolysis [1]: approximately 80% | IC50 (HCT-116): 1080 nM | IC50 (L1210; L1210, read-out: In vitro cytotoxicity IC50, Leukemia L1210): 1180 nM | IC50 (MDA-MB-231): 3280 nM

O=c1[nH]c(=O)n([C@H]2C[C@H](O)[C@@H](CO)O2)cc1C(F)(F)F [Trifluridine, 5-trifluorothymidine]
half-life [2]: 12 min
